Laboratory results as given in patent publication US20260034123A1 (Cedilla Therapeutics, Inc., priority 2022, published 2026).

What was measured:
Kuramochi cells RB-KO = test: IncuCyte Kuramochi cell proliferation assay, RB-KO; type: cell-based; conditions: 72 hours, cell count, batch mean
Summary of the method: (§1)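 GI50 was derived by curve-fitting DMSO-normalized fold change in nuclear count between 0 and 72 h. Counts came from images of Kuramochi cells carrying mApple-H2B. Compounds were dosed over 10 points at 1/2-log spacing from a 20 µM top concentration.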

CDK2/Cyclin E1 = CDK2/Cyclin E1 (Homo sapiens, UniProt P24941); test: ADP-Glo Luminescent Kinase Assay (CDK2/E1-37C); type: biochemical; conditions: 0.18 nM CDK2/Cyclin E1, 100 μM ATP, Histone H1, 37° C.; read-out: ADPGLO (CDK2/E1-37C): IC50
Summary of the method: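 IC50 fitted by four-parameter equation from ADP-Glo luminescence converted to % activity. Compounds were preincubated 60 min at 37 °C with enzyme, then kinase reaction ran 90 min at 37 °C with 0.18 nM enzyme, 100 μM ATP, Histone H1 ([…]), pH 7.5 HEPES, Mg2+, DTT.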

Kuramochi cells RB-WT = test: IncuCyte Kuramochi cell proliferation assay, RB-WT; type: cell-based; conditions: 72 hours, cell count
Summary of the method: as §1

IC50 (CDK2/Cyclin E1) [µM] | Compound | IC50 (Kuramochi cells RB-KO) [µM] | IC50 (Kuramochi cells RB-WT) [µM]
≤ 0.5 | CC1(C)C[C@@H]1C(=O)N1CC2(CN(C(=O)c3cnn(Cc4ccc(F)cc4)c3)C[C@H]2COCc2cccc(C3CCC(F)(F)CC3)c2C(=O)OCCN2CCOCC2)C1 [I′-36, 2-morpholinoethyl 2-(4,4-difluorocyclohexyl)-6-((((S)-2-((S)-2,2-dimethylcyclopropane-1-carbonyl)-6-(1-(4-fluorobenzyl)-1H-pyrazole-4-carbonyl)-2,6-diazaspiro[3.4]octan-8-yl)methoxy)methyl)benzoate] | 0.5 to 5 | ≤ 0.5
0.5 to 5 | N#Cc1c(COCC2CN(C(=O)c3cnn(Cc4ccc(C(F)(F)F)cc4)c3)CC23CN(C(=O)C2(C(F)(F)F)CC2)C3)cccc1C1CCC(C(F)(F)F)CC1 (stereo not drawn) [I′-86] | > 10 | > 10
≤ 0.5 | CC(C)(C(=O)N1CC2(CN(C(=O)c3cnn(Cc4ccc(F)cc4)c3)C[C@H]2COCc2cccc(C3CCC(F)(F)CC3)c2C(=O)NCCN2CCOCC2)C1)C(F)(F)F [I′-22] | > 10 | > 10
≤ 0.5 | O=C(O)c1c(COC[C@@H]2CN(C(=O)c3cnn(Cc4ccc(Cl)cc4F)c3)CC23CN(C(=O)C2(C(F)(F)F)CC2)C3)cccc1C1CCC(C(F)(F)F)CC1 (stereo in doubt) [Compound I-71, 2-(((6-(1-(4-chloro-2-fluorobenzyl)-1H-pyrazole-4-carbonyl)-2-(1-(trifluoromethyl)cyclopropane-1-carbonyl)-2,6-diazaspiro[3.4]octan-8-yl)methoxy)methyl)-6-(4-(trifluoromethyl)cyclohexyl)benzoic acid] | > 10 | > 10
≤ 0.5 | O=C(c1cnn(Cc2ccc(F)cc2)c1)N1C[C@@H](COCc2cccc(C3CCC(F)(F)CC3)c2-c2nn[nH]n2)C2(C1)CN(C(=O)C1(C(F)(F)F)CC1)C2 [I′-54, (S)-(8-(((3-(4,4-difluorocyclohexyl)-2-(2H-tetrazol-5-yl)benzyl)oxy)methyl)-2-(1-(trifluoromethyl)cyclopropane-1-carbonyl)-2,6-diazaspiro[3.4]octan-6-yl)(1-(4-fluorobenzyl)-1H-pyrazol-4-yl)methanone] | > 10 | 5 to 10
≤ 0.5 | CC(C)(C(=O)N1CC2(CN(C(=O)c3cnn(Cc4ccc(F)cc4)c3)CC2COCc2cccc(C3CCC(F)(F)CC3)c2C(=O)O)C1)C(F)(F)F (stereo not drawn) [I′-76] | 5 to 10 | 0.5 to 5
≤ 0.5 | CC(C(=O)N1CC2(CN(C(=O)c3cnn(Cc4ccc(F)cc4)c3)C[C@H]2COCc2cccc(C3CCC(C(F)(F)F)CC3)c2C(=O)O)C1)(C(F)(F)F)C(F)(F)F (stereo partly drawn) [Compound I-100, (S)-2-(((6-(1-(4-fluorobenzyl)-1H-pyrazole-4-carbonyl)-2-(3,3,3-trifluoro-2-methyl-2-(trifluoromethyl)propanoyl)-2,6-diazaspiro[3.4]octan-8-yl)methoxy)methyl)-6-(4-(trifluoromethyl)cyclohexyl)benzoic acid] | > 10 | > 10
> 10 | O=C(O)c1c(COCC2CN(Cc3cnn(Cc4ccc(F)cc4)c3)C(=O)C23CN(C(=O)C2(C(F)(F)F)CC2)C3)cccc1C1CCC(C(F)(F)F)CC1 (stereo not drawn) [I′-60] | > 10 | > 10
≤ 0.5 | CN(C)S(=O)(=O)NC(=O)c1c(COC[C@@H]2CN(C(=O)c3cnn(Cc4ccc(F)cc4)c3)CC23CN(C(=O)[C@H]2CC2(C)C)C3)cccc1C1CCC(F)(F)CC1 [I′-65, 2-(4,4-difluorocyclohexyl)-6-((((S)-2-((S)-2,2-dimethylcyclopropane-1-carbonyl)-6-(1-(4-fluorobenzyl)-1H-pyrazole-4-carbonyl)-2,6-diazaspiro[3.4]octan-8-yl)methoxy)methyl)-N—(N,N-dimethylsulfamoyl)benzamide] | > 10 | > 10
≤ 0.5 | CC(C)(C(=O)N1CC2(CN(C(=O)c3cnn(Cc4ccc(F)cc4)c3)C[C@H]2COCc2ccc(F)c(C3CCC(F)(F)CC3)c2C(=O)O)C1)C(F)(F)F [I′-21] | > 10 | > 10
≤ 0.5 | O=C(c1cnn(Cc2ccc(F)cc2)c1)N1CC(COCc2cccc(C3CCC(F)(F)CC3)c2-c2n[nH]c(=O)o2)C2(C1)CN(C(=O)C1(C(F)(F)F)CC1)C2 (stereo not drawn) [I′-63, 5-(2-(4,4-difluorocyclohexyl)-6-(((6-(1-(4-fluorobenzyl)-1H-pyrazole-4-carbonyl)-2-(1-(trifluoromethyl)cyclopropane-1-carbonyl)-2,6-diazaspiro[3.4]octan-8-yl)methoxy)methyl)phenyl)-1,3,4-oxadiazol-2(3H)-one] | > 10 | > 10
≤ 0.5 | CC1(C)C[C@@H]1C(=O)N1CC2(CN(C(=O)c3cnn(Cc4ccc(F)cc4)c3)CC2COCc2cccc(C3CCC(C(F)(F)F)CC3)c2C(=O)NS(C)(=O)=O)C1 (stereo partly drawn) [Compound I-86, 2-(((2-((S)-2,2-dimethylcyclopropane-1-carbonyl)-6-(1-(4-fluorobenzyl)-1H-pyrazole-4-carbonyl)-2,6-diazaspiro[3.4]octan-8-yl)methoxy)methyl)-N-(methylsulfonyl)-6-(4-(trifluoromethyl)cyclohexyl)benzamide] | 0.5 to 5 | 0.5 to 5
> 10 | O=C(O)c1c(COC[C@@H]2CN(c3cc(F)c(F)c4nc(C(F)(F)F)sc34)CC23CN(C(=O)C2(C(F)(F)F)CC2)C3)cccc1C1CCC(F)(F)CC1 [I′-50] | > 10 | > 10
0.5 to 5 | O=C(O)c1c(COC[C@H]2CN(c3cc(F)c(F)c4ncsc34)CC23CN(C(=O)C2(C(F)(F)F)CC2)C3)cccc1C1CCC(F)(F)CC1 [I′-62] | > 10 | > 10
≤ 0.5 | CC(C)(C(=O)N1CC2(CN(C(=O)c3cnn(Cc4ccc(F)cc4)c3)C[C@H]2COCc2cccc(-c3cccc(F)c3)c2C(=O)O)C1)C(F)(F)F [I′-28] | > 10 | 5 to 10
≤ 0.5 | CC1(C)C[C@@H]1C(=O)N1CC2(CN(C(=O)c3cnn(Cc4ccc(F)cc4)c3)C[C@H]2COCc2cccc(C3CCC(F)(F)CC3)c2C(=O)NCCN2CCOCC2)C1 [I′-25, 2-(4,4-difluorocyclohexyl)-6-((((S)-2-((S)-2,2-dimethylcyclopropane-1-carbonyl)-6-(1-(4-fluorobenzyl)-1H-pyrazole-4-carbonyl)-2,6-diazaspiro[3.4]octan-8-yl)methoxy)methyl)-N-(2-morpholinoethyl)benzamide] | > 10 | > 10
0.5 to 5 | CC(C)(C(=O)N1CC2(CN(C(=O)c3cnn(Cc4ccc(F)cc4)c3)C[C@H]2COCc2cccc(-c3ccccc3)c2)C1)C(F)(F)F [I′-39] | > 10 | > 10
≤ 0.5 | CC1(C)C[C@@H]1C(=O)N1CC2(CN(C(=O)c3cnn(Cc4ccc(F)cc4)c3)CC2COc2cccc(OC3CCC(F)(F)CC3)c2C(=O)O)C1 (stereo partly drawn) [Compound I-130, 2-((4,4-difluorocyclohexyl)oxy)-6-((2-((S)-2,2-dimethylcyclopropane-1-carbonyl)-6-(1-(4-fluorobenzyl)-1H-pyrazole-4-carbonyl)-2,6-diazaspiro[3.4]octan-8-yl)methoxy)benzoic acid] | > 10 | > 10
≤ 0.5 | CS(=O)(=O)NC(=O)c1c(COC[C@@H]2CN(C(=O)c3cnn(Cc4ccc(F)cc4)c3)CC23CN(C(=O)C2(C(F)(F)F)CC2)C3)cccc1C1CCC(F)(F)CC1 [I′-44, (S)-2-(4,4-difluorocyclohexyl)-6-(((6-(1-(4-fluorobenzyl)-1H-pyrazole-4-carbonyl)-2-(1-(trifluoromethyl)cyclopropane-1-carbonyl)-2,6-diazaspiro[3.4]octan-8-yl)methoxy)methyl)-N-(methylsulfonyl)benzamide] | > 10 | 0.5 to 5
≤ 0.5 | O=C(O)c1c(COC[C@@H]2CN(c3cc(F)c(F)c4ncsc34)CC23CN(C(=O)C2(C(F)(F)F)CC2)C3)cccc1C1CCC(C(F)(F)F)CC1 (stereo partly drawn) [I′-34, (S)-2-(((6-(4,5-difluorobenzo[d]thiazol-7-yl)-2-(1-(trifluoromethyl)cyclopropane-1-carbonyl)-2,6-diazaspiro[3.4]octan-8-yl)methoxy)methyl)-6-(4-(trifluoromethyl)cyclohexyl)benzoicacid] | > 10 | ≤ 0.5
≤ 0.5 | O=C(O)COc1c(COC[C@@H]2CN(C(=O)c3cnn(Cc4ccc(F)cc4)c3)CC23CN(C(=O)C2(C(F)(F)F)CC2)C3)cccc1C1CCC(C(F)(F)F)CC1 (stereo partly drawn) [Compound I-109, (S)-2-(2-(((6-(1-(4-fluorobenzyl)-1H-pyrazole-4-carbonyl)-2-(1-(trifluoromethyl)cyclopropane-1-carbonyl)-2,6-diazaspiro[3.4]octan-8-yl)methoxy)methyl)-6-(4-(trifluoromethyl)cyclohexyl)phenoxy)acetic acid] | > 10 | > 10
≤ 0.5 | CC(C)(C(=O)N1CC2(CN(C(=O)c3cnn(Cc4ccc(F)cc4)c3)C[C@H]2COCc2cccc(-c3csc(C(F)(F)F)c3)c2C(=O)O)C1)C(F)(F)F [I′-26, (S)-2-(((6-(1-(4-fluorobenzyl)-1H-pyrazole-4-carbonyl)-2-(3,3,3-trifluoro-2,2-dimethylpropanoyl)-2,6-diazaspiro[3.4]octan-8-yl)methoxy)methyl)-6-(5-(trifluoromethyl)thiophen-3-yl)benzoic acid] | > 10 | ≤ 0.5
≤ 0.5 | CC(C)(C(=O)N1CC2(CN(C(=O)c3cnn(Cc4cc(F)c(F)c(F)c4)c3)C[C@H]2COCc2cccc(C3CCC(F)(F)CC3)c2C(=O)O)C1)C(F)(F)F [I′-53] | > 10 | 0.5 to 5
